# Laboratory results reported in patent US9072729B2, “Method for treating fibrosis and cancer with imidazolium and imidazolinium compounds” (Agency for Science, Technology and Research, priority 2008, dated 2015).
# Tests used:
# [1] = test system: C6; assay: Caspase 3/7 activity in C6; assay type: cell-based, rat; conditions: C6, 2.0 mM, 6 hr
# Protocol: (§1) FIG. 30. DBZIM inhibited cell proliferation in glioma cell line C6 (A) and U87 MG (C) and induced caspase 3/7 activity in C6 (B) and U87 MG (D). C6 or U87 cells were incubated with DBZIM of various concentrations for 48 hr for proliferation assay and 6 hr for caspase 3/7 activation assay. Proliferation was measured using MTS kit from Promega and expressed as relative cell proliferation with control group was normalized to 1. Caspase 3/7 activity was quantified using a kit from Promega and also expressed as relative caspase 3/7 activity of treated groups over control group.
# (§2) Capspase 3/7 activity and lactate dehydrogenase (LDH) release were measured by Fluorometric assays (Promega Corp., WI, USA). The HCC cells were cultured in 96-well plate and treated with DBZIM of various concentrations for 6 hr before assays. For caspase 3/7 assay, medium was removed and substrate buffer was added to lyse the cell and react with caspase 3/7 to give rise to fluorescence signal which was read at Ex=485 nm and Em=530 nm on a Tecan Safire II plate reader after 1 hr incubation. The caspase 3/7 activity of sample cells with the compound treatment was expressed as relative fold change after normalizing to the control cells. The LDH assay (indicative of membrane integrity) was performed using a Kit from Promega Corp according to manufactor's instructions.
# [2] = test system: phospho-Ser473-Akt; assay: Western blot of phosphorylated Akt; assay type: cell-based, human; conditions: H1299, MCF-7, AGS and MKN28, IC50 concentration, 24 h to 72 h
# Source text: FIG. 32. DBZIM inhibits phosphorylation of Akt. […] Time course inhibition of phosphorylated-AKT was shown by Western blot. β-actin was used as an internal loading control.
# The Akt (also known as protein kinase B) kinase signaling pathway is activated in a variety of carcinomas of lung, breast, colon, and pancreatic and other tumor types through over-expressing the Akt protein itself and/or increasing phosphorylation of Akt. This study provided evidence that DBZIM is particularly efficacious in inducing apoptosis in AGS, H1299 and MCF-7 cells through a mechanism involving the reduction in the levels of the, phospho-AKT.
# [3] = test system: C6; assay: Proliferation assay (MTS), glioma C6; assay type: cell-based; conditions: Rattus norvegicus, 48 h; C6, determined at day 2
# Protocol: as §1
# Proliferation of Glioma cell lines: U87 MG and C6 under the treatment of DBZIM was examined using 3-(4,5-dimethylthiazol-2-yl)-5-(3-carboxymethoxyphenyl)-2-(4-sulfophenyl)-2H-tetrazolium (MTS) based proliferation assay kit (Promega, Wis., USA). MTS reagent was added to the control and treated cells (after 48 hr) directly and the absorbance signal was read at 490 nm using a Tecan Safire II plate reader.
# [4] = test system: liver fibrosis induced by thioacetamide (TAA); assay: Liver fibrosis in mice induced by thioacetamide (TAA); assay type: in vivo, mouse; conditions: TAA model, 500 mg/L in drinking water, 12 weeks
# Protocol: FIG. 15 Effect of DBZIM and DPIM on liver fibrosis in mice. DBZIM was tested on mice induced by (a) liver toxin thioacetamide (TAA) or by (b) bile duct ligation (BDL). DPIM was also tested on mice induced by TAA (data not shown)) or by (c) bile duct ligation (BDL).
# For the liver toxin thioacetamide (TAA) model, TAA was given by i.p. injection at 200 mg/kg body weight, 3 times per week, for 12 weeks, to induce hepatic fibrosis in mice. For the bile duct ligation model (BDL), adult mice were anesthetized with Ketamine (150 mg/kg)/Xylazine (10 mg/kg) via i.p. injection. An abdominal incision at the midline is made to expose the common bile conduct, which was then ligated using 5-0 silk suture. In the control animal, the bile duct is exposed, but not ligated. DBZIM or DPIM was provided to the mice in drinking water at concentrations from 1 to 1000 mg/liter. The collagen content in the fibrotic liver was assessed by the Sirius Red staining of the liver tissue sections.
# [5] = test system: Bcl-2 and IAP protein expression in HepG2 cells; assay: Western blot of Bcl-2 and IAP family proteins; assay type: cell-based, human; conditions: HepG2, 0-2.0 mM, 24 hr
# Protocol: FIG. 24. DBZIM affected Bcl-2 and IAP protein expression. HepG2 cells were treated with DBZIM (0, 0.5, 1.0, 1.5 and 2.0 mM) for 24 hr. Total protein was collected using RIPA buffer. 15 μg of total protein was resolved in 4-12% gradient PAGE-SDS gel. The target proteins were recognized by respective antibodies, and visualized by the ECL method. The membrane was stripped and probed for the α-tubulin as the loading control.
# Protein extracts were prepared by lysing cell pellet in RIPA buffer (Pierce, Ill., USA) for total protein extract, or in NE-PER reagent from Pierce (Pierce, Ill., USA) for nuclear and cytoplasmic fractions, or in a Kit from BioVision (CA, USA) for mitochondria and cytosol fractions. Protein content was quantified using BCA Kit (Pierce, Ill., USA). Fifteen micrograms of protein were resolved in 4-12% gradient SDS/polyacrylamide gel electrophoresis (PAGE) gel, and transferred to nitrocellular membrane. The membrane was then probed with primary antibodies against Bcl-XL, Bak, Bcl-2α, Bax (Lab Vision Corp., CA, USA), survivin, xIAP, cIAP (R&D systems Inc., MN, USA), c-Jun, c-Fos, JunB, JunD, Fra-1, Fra-2 (Santa Cruz Biotechnology, CA, USA) respectively, and detected by horseradish peroxidase-conjugated secondary antibody (Santa Cruz Biotechnology, CA, USA). Protein bands were recorded on X-ray film by reacting with ECL chemiluminescence reagents (Amersham Biosciences, NJ, USA). Alpha-tubulin (Abeam, UK) was used as the loading control for total protein, Tata binding protein (TBP) (Abeam, UK) was used as the loading control for nuclear protein, and Cox4 (Abcam, UK) was used as loading control for mitochondria protein.
# [6] = test system: HLE cells; assay: Cell based caspase 3/7 and LDH assays, HLE; set-up: species or system human; conditions: 6 hr
# Protocol: FIG. 22. […] HLE or HepG2 cells were incubated with DBZIM of various concentrations for 6 hr, and assayed for caspase 3/7 activity and LDH releasing (expressed as % toxicity). DBZIM induced apoptosis as characterized by annexin V staining using flow cytometer in HLE (E) and HepG2 (F). Scatter plot and histogram gave the representative information on the cell population distribution while bar graphs quantified the percentage of apoptotic cells from the histogram. HLE and HepG2 cells were treated by DBZIM of various concentrations for 24 hr before harvesting for annexin V staining and flow cytometric analysis.
# as §2
compound,measurement,setting,value
"[Br-].c1ccc(Cn2cc[n+](Cc3ccccc3)c2)cc1 [DBZIM, 1,3-bisbenzylimidazolium bromide]",elevation of caspase 3/7,[1],3 folds
same,active form of Akt (phospho-Ser473-Akt),[2],appreciable down-regulation
same,IC50,[3],1 mM
same,liver fibrosis (Sirius Red collagen),[4],attenuated fibrosis
same,Bak protein,[5],up-regulated
same,Bcl-2α and Bax proteins,[5],not affected
same,Bcl-XL protein,[5],slightly down-regulated
same,survivin protein,[5],significantly suppressed
same,xIAP and cIAP proteins,[5],not affected
same,LDH release,[6],least affected
same,caspase 3/7 activity,[6],enhanced
